We go through ten compounds from patent publication US20230121721A1, “MONOACYLGLYCEROL LIPASE INHIBITORS” (STICHTING HET NEDERLANDS KANKER INSTITUUT - ANTONI VAN …, priority 2020, published 2023).

pIC50: −log10 of the molar value.

The target in this experiment is T1, hMAGL (MAGL-overexpressing membrane preparations from transiently transfected HEK293T cells) (Homo sapiens, UniProt Q99685).
T1 construct: expressed in transfected cells; host or cells: HEK293T (transient transfection), membrane preparations
T1 sequence (Q99685 1-303): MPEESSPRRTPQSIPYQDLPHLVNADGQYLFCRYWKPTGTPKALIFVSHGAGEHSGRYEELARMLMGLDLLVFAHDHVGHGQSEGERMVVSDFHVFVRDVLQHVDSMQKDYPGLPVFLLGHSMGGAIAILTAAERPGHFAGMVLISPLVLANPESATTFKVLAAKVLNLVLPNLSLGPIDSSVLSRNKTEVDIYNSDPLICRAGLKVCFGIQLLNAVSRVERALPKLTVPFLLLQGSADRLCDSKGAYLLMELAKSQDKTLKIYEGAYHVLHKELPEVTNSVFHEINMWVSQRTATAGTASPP
The experiment can be described thus: MAGL activity assay (2-AG hydrolysis, glycerol coupled to Amplifu Red fluorescence). Type of experiment: biochemical. The conditions noted are these: hMAGL-overexpressing HEK293T membranes, 25 μM 2-AG substrate, 20 min. inhibitor incubation.
For `C[C@H]1[C@H](C)N(c2cccc(Cl)c2)CCN1C(=O)c1ccc([S+]([O-])CC(=O)c2ccc(C#N)cc2)c(Cl)c1` (mixture of isomers) [Example 99, (±) 4-(2-((2-Chloro-4-(4-(3-chlorophenyl)-trans-2,3-dimethyl-piperazine-1-carbonyl)phenyl)sulfinyl)acetyl)benzonitrile], the pIC50 was 7.04. `C[C@H]1[C@H](C)N(c2cccc(Cl)c2)CCN1C(=O)c1ccc([S+]([O-])CC(=O)c2ccnnc2)c(Cl)c1` (mixture of isomers) [Example 96, (±) 2-((2-Chloro-4-(4-(3-chlorophenyl)-trans-2,3-dimethylpiperazine-1-carbonyl)phenyl)sulfinyl)-1-(pyridazin-4-yl)ethan-1-one] showed a pIC50 of 6.15. The value for `C[C@H]1[C@H](C)N(c2cccc(Cl)c2)CCN1C(=O)c1ccc([S+]([O-])CC(=O)c2ccncn2)c(Cl)c1` (mixture of isomers) [Example 100, (±) 2-((2-Chloro-4-(4-(3-chlorophenyl)-trans-2,3-dimethylpiperazine-1-carbonyl)phenyl)sulfinyl)-1-(pyrimidin-4-yl)ethan-1-one] was 7.06. For the compound `C[C@H]1[C@H](C)N(c2cccc(Cl)c2)CCN1C(=O)c1ccc([S+]([O-])CC(=O)c2cnccn2)c(Cl)c1` (mixture of isomers) [Example 101, (±) 2-((2-Chloro-4-(4-(3-chlorophenyl)-trans-2,3-dimethylpiperazine-1-carbonyl)phenyl)sulfinyl)-1-(pyrazin-2-yl)ethan-1-one], the pIC50 was 5.96.

Consider `C[C@H]1[C@H](C)N(c2cccc(Cl)c2)CCN1C(=O)c1ccc([S+]([O-])CC(=O)c2ccc(C(F)(F)F)nc2)c(Cl)c1` (mixture of isomers) [Example 90, (±) 2-((2-Chloro-4-(4-(3-chlorophenyl)-trans-2,3-dimethylpiperazine-1-carbonyl)phenyl)sulfinyl)-1-(6-(trifluoromethyl)pyridin-3-yl)ethan-1-one], for which the pIC50 is 6.09. In turn, `CCOC(=O)C[S+]([O-])c1ccc(C(=O)N2CCN(c3cncc(Cl)c3)[C@@H](C)[C@@H]2C)cc1Cl` (mixture of isomers) [Example 68, (±) Ethyl 2-((2-chloro-4-(-4-(5-chloropyridin-3-yl)-trans-2,3-dimethylpiperazine-1-carbonyl)phenyl)sulfinyl)acetate] showed a pIC50 of 7.68. The value for `CCOC(=O)C[S+]([O-])c1ccc(C(=O)N2CCN(c3cccc(C)c3)[C@@H](C)C2)cc1` (stereo partly drawn) [Example 7, Ethyl 2-((4-((S)-3-methyl-4-(m-tolyl)piperazine-1-carbonyl)phenyl)sulfinyl)acetate] was 5.25. The figure for `CCOC(=O)C[S+]([O-])c1ccc(C(=O)N2CCN(c3ccc(Cl)c(Cl)c3)CC2)cc1[N+](=O)[O-]` (stereo not shown) [Example 22, Ethyl 2-((4-(4-(3,4-dichlorophenyl)piperazine-1-carbonyl)-2-nitrophenyl)sulfinyl)acetate] is 5.59; for `CCOC(=O)C[S+]([O-])c1ccc(C(=O)N2CCN(c3ccc(Cl)cc3Cl)CC2)cc1[N+](=O)[O-]` (stereo not shown) [Example 23, Ethyl 2-((4-(4-(2,4-dichlorophenyl)piperazine-1-carbonyl)-2-nitrophenyl)sulfinyl)acetate] it is 5.71.

In turn, `C[C@H]1[C@H](C)N(c2cccc(Cl)c2)CCN1C(=O)c1ccc([S+]([O-])CC(=O)c2ccccc2)c(Cl)c1` (mixture of isomers) [Example 104, (±) 2-((2-Chloro-4-(4-(3-chlorophenyl)-trans-2,3-dimethylpiperazine-1-carbonyl)phenyl)sulfinyl)-1-phenylethan-1-one] showed a pIC50 of 5.64.

The term pIC50 denotes the negative decadic logarithm of the IC50, by convention in mol/L. Higher therefore signals a small IC50.
